Data set [1] concerns the target T1, EWS-FLI1 transcriptional activity (Homo sapiens, UniProt Q01543+Q01844).
T1 sequence (Q01844 1-264): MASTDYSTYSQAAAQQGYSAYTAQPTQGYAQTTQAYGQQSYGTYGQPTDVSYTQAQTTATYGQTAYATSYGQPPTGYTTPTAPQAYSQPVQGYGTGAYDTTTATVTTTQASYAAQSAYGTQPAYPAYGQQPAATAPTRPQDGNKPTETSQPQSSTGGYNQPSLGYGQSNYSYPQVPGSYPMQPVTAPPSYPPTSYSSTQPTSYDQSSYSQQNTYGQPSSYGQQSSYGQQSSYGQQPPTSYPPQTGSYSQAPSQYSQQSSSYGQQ
T1 sequence (Q01543 220-452): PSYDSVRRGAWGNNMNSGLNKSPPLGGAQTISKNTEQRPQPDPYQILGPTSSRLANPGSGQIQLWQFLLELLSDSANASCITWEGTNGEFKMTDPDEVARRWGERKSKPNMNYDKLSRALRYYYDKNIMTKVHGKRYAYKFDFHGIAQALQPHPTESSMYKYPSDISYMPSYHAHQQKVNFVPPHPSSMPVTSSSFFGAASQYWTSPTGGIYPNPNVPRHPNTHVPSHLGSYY
Nature of the data set: NR0B1-luciferase reporter assay in COS7 cells transfected with EWS-FLI1. Format: cell-based. As to conditions: for luciferase activity compared to vehicle: COS7 cells, dose of 0.3μM. The procedure: Cells were transiently transfected with the NR0B1 luciferase reporter and full length EWS-FLI1 into COS7 cells with Fugene-6 (Roche) according to the manufacturer's protocol. Two hours after transformation, cells were treated with 0.3, 1, and 3μM of YK-4-279, (S)-YK-4-279, and (R)-YK-4-279. Luciferase activity was measured 16 hours after treatment. Protein concentration was normalized by absorbance at 280nm. All luciferase assays were performed using a luciferase assay kit according to the manufacturer's protocol (Promega).
On the technique in general: A reporter such as luciferase makes a cellular process visible.

The subject of data set [2] is TC71 cells. Nature of the data set: Cellular proliferation (WST) assay, TC71. Particulars: for IC50: TC-71, 72 h, TC71, ESFT (Type 1), read-out: IC50 at 3 days (+/− SEM). Type of data set: cell-based. The procedure:
(§1) TC32, TC71, RDES, MMH-ES-1, STA-ET 7.2, A4573, and PC3 cells were grown in RPMI with 10% FBS and 1% HEPES. SKES cells were grown in McCoy's 5A medium with 15% FBS. MCF7, MDA-MB-231, PANC1, and ASPC1 cells were grown in colorless DMEM with 10% FBS. Cells were grown at a plating density of 5,000 – 15,000 cells/well, depending on cell line, in a 96-well plate. Small molecule or vehicle alone (DMSO) were added to cells in appropriate growth media the day after plating. After three days, viable cells were quantified using WST (Roche) according to the manufacturer's protocol. IC50 values were calculated by sigmoidal dose-response curve fit using Prism Graphpad 4.0.

Data set [3] deals with TC32 cells. Briefly: Cellular proliferation (WST) assay, TC32. Format: cell-based. As to conditions: Homo sapiens, TC-32, 72 h; TC32, ESFT (Type 1); read-out: IC50 at 3 days (+/− SEM). On the procedure: as §1
In data set [4] the test system is RDES cells. Nature of the data set: Cellular proliferation (WST) assay, RDES. Format: cell-based. As to conditions: for IC50: RD-ES, 72 h, RDES, ESFT (Type 2), read-out: IC50 at 3 days (+/− SEM). The procedure: as §1
Data set [5] relates to PC3 cells. Briefly: Cellular proliferation (WST) assay, PC3. Type of data set: cell-based. As to conditions: Homo sapiens, PC-3, 72 h, read-out: IC50 at 3 days (+/− SEM). On the procedure: as §1
Data set [6] is described as follows: Pharmacokinetic analysis in rats. Format: in vivo. As to conditions: both sexes, Sprague-Dawley, plasma, po; rat, gavage administration. On the procedure: (§2) All pharmacokinetic studies were performed using Sprague-Dawley rats. Nine rats per gender were assigned to nine dose groups, which received either a single IV injection of YK-4-279, (S)-YK-4-279, or (R)-YK-4-279 at a target dose of 25 mg/kg, or a single gavage administration of small molecule at a target dose level of 25 or 50 mg/kg. Plasma was obtained from the rats and samples were processed by liquid extraction followed by analysis using liquid chromatography with mass spectrometry (LC/MS). Average urine concentrations were measured at intervals from 0-4, 4-8, and 8-12 hours after dosing. 18 Fox Chase SCID Beige mice were injected with A4573 cells and received six doses of (S)-YK-4-279 at 75 mg/kg to determine concentration of small molecule in the tumors.

A short description of data set [7]: Evaluation of racemization in A4573 ESFT xenograft tumors. Type of data set: in vivo. As to conditions: A4573 tumor-bearing SCID mice, IP (75 mg/kg), tumors resected two hours following dosing. The procedure: as §2
Data set [8] deals with caspase-3 activity in A4573 ESFT cells. Briefly: Caspase-3 activation dose titration in A4573 cells. As to conditions: between 0.3 and 1μM, 18 hours. Type of data set: cell-based. The procedure: (§3) Cells were plated at 100,000 – 200,000 cells/well, depending on cell line, in a 12 well plate. Small molecule was added the following day. 18 hours later, lysates were collected using the manufacturer's protocol for the AC-DEVD-AMC substrate (BD Bioscience Pharmingen). Caspase-3 substrate was incubated for 2 hours with protein lysate and fluorescence from cleaved substrate was measured in a fluorimeter. Fluorescent signal was then normalized to protein lysate via BCA assay.

Data set [9] concerns caspase-3 activity in ESFT cells (TC32, RDES, SKES, A4573, MMH-ES-1, STA-ET 7.2). Nature of the data set: Caspase-3 activity in ESFT cells. Format: cell-based. Particulars: 10μM, 18 hours. The procedure:
as §3

Data set [10] has as its system PANC1 cells. As to conditions: PANC1 from a different source, previously reported; cited from earlier work.
The test system of data set [11] is MDA-MB-231 cells. As to conditions: MDA-MB-231 from a different source, previously reported; cited from earlier work.
For data set [12], the system named is non-transformed cell lines. Also on record: method as in PMID 19584866. Particulars: racemic; cited from earlier work.
Details of data set [13]: method as in PMID 19584866. Particulars: xenograft mice, 75 mg per kg body weight; cited from earlier work.

In the case of `COc1ccc(C(=O)C[C@]2(O)C(=O)Nc3c(Cl)ccc(Cl)c32)cc1` [(R)-YK-4-279], in data set [1] (COS7 cells, 0.3, 1 and 3μM), the “luciferase activity compared to control” value was “did not show significant reduction from control”. Moreover, the IC50 in data set [2] is 20.9 µM; in [3], 16.3 µM; in data set [4] it was 12.7 µM; in data set [5], greater than 30 µM. In data set [6], the bioavailability (in general, the share of a dose that reaches the circulation, judged against a reference dose that is usually intravenous) is 8 to 15%.
With `COc1ccc(C(=O)C[C@@]2(O)C(=O)Nc3c(Cl)ccc(Cl)c32)cc1` [(S)-YK-4-279], in [7], the “Percent of (S)-YK-4-279 present in tumor” value was determined as 100%. The “luciferase activity compared to vehicle” value in data set [1] is on record as “significantly reduced”. Besides, the “fold-difference in IC50 between the racemic and the active enantiomer” value in data set [2] (TC71 cells) is “more than a log-fold difference”; in data set [4] (RDES cells), 1.18 fold. The IC50 amounted to 0.16 µM in [2], 0.28 µM in data set [3], 0.87 µM in [4] and 3.79 µM in data set [5]. Besides, the “slope (m), rate of caspase activity increase” value in data set [8] is given as 7.23 ± 0.32. The bioavailability in data set [6] fell in the range of 2 to 6%. The “caspase-3 activation, average across the panel of six ESFT cell lines” value in data set [9] is 10.3 fold.
`COc1ccc(C(=O)CC2(O)C(=O)Nc3c(Cl)ccc(Cl)c32)cc1` (stereo not shown) [YK-4-279]: in [1], the “luciferase activity compared to vehicle” value is given as “not significant”. For the same compound, the IC50 in [2] was 1.83 µM; in data set [10] it was greater than 20 µM; in data set [3], 0.94 µM; in data set [4], 1.03 µM; in [11], greater than 20 µM; in data set [5] it was 4.95 µM. For the same compound, in [12], the IC50 is greater than 30 µM. The “slope (m), rate of caspase activity increase” value in data set [8] is 4.43 ± 0.66. The toxicity entry in data set [13] is reported as “no toxicity”. In addition, the “caspase-3 activation, average across the panel of six ESFT cell lines” value in data set [9] turned out to be 8.8 fold.

The values are drawn from PMC3326647, “Single Enantiomer of YK-4-279 Demonstrates Specificity in Targeting the Oncogene EWS-FLI1” (Oncotarget, 2012).
